# Experimental data taken from US20220249394A1 (priority 2019, published 2022).
# What was measured:
# [1] = molecular target: prion protein (PrP^C) in N2a cells (Mus musculus, UniProt P04925); format: cell-based; conditions: 6 mM HFIP for 24 hours, protease K 10 μg/ml 37° C. 30 minutes, Western blotting, FIG. 2 #1 to #4
# [2] = test system: ScNeuro 2a (ScN2a) cells producing abnormal prion protein (PrP^Sc); format: cell-based, mouse; conditions: 24 hours culture with 0-40 mM HFIP, crystal violet staining, FIG. 1
# [3] = test system: Neuro 2a (N2a) cells producing normal prion protein (PrP^C); format: cell-based, mouse; conditions: 24 hours culture with 0-40 mM HFIP, crystal violet staining, FIG. 1
# Chain of prion protein (PrP^C) in N2a cells (P04925 23-230 limits assumed): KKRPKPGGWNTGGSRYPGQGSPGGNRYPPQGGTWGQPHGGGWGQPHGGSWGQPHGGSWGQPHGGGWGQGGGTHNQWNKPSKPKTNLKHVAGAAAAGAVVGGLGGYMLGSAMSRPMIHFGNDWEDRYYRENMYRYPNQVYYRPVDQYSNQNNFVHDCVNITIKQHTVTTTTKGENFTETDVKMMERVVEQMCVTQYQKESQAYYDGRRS
structure (smiles),measurement,setting,value
"OC(C(F)(F)F)C(F)(F)F [HFIP, 1,1,1,3,3,3-hexafluoro-2-propanol]",degradation of protein by protease K,[1],degraded by protease K with or without the addition of HFIP
same,upper concentration limit at which ScN2a cells can survive,[2],20 mM
same,upper concentration limit of HFIP at which N2a cells can survive,[3],25 mM
